From ChEMBL document CHEMBL4118102 (J Med Chem, 2018)

How the values were obtained:
Neuraminidase [1] = target: T1, Neuraminidase (Influenza A virus, UniProt B4URF0)
Neuraminidase [2] = target: T2, Neuraminidase (Influenza A virus, UniProt A5Z252); set-up: species or system Influenza A virus (A/chicken/Bangli/BBVD-563/2007(H5N1)), clade 2
Neuraminidase [3] = target: T2, Neuraminidase; set-up: species or system Influenza A virus (A/chicken/Bangli/BBVD-563/2007(H5N1)), clade 2; remark: listed apart in the source
[4] = target: Neuraminidase (Influenza A virus (A/Memphis/1/1971(H3N2)), UniProt P03471); set-up: species or system Influenza A virus (A/Fukui/45/2004(H3N2))
[5] = target: Neuraminidase (Influenza A virus (A/Memphis/1/1971(H3N2)), UniProt P03471); set-up: species or system Influenza A virus (A/Fukui/45/2004(H3N2)); remark: listed apart in the source
Neuraminidase [6] = target: T3, Neuraminidase (Influenza B virus, UniProt Q3S340); set-up: species or system Influenza B virus (B/Perth/211/2001)
Neuraminidase [7] = target: T3, Neuraminidase; set-up: species or system Influenza B virus (B/Perth/211/2001); remark: listed apart in the source
Influenza A virus [8] = assay: Antiviral activity against Influenza A virus (A/Mississippi/03/01 (H1N1)) infected in MDCK cells assessed as reduction in plaque formation measured after 3 days post infection by neutral red staining-based assay; format: functional, organism-based; conditions: 72 h
Influenza A virus [9] = assay: Antiviral activity against Influenza A virus (A/Fukui/45/04(H3N2)) infected in MDCK cells assessed as reduction in plaque formation measured after 3 days post infection by neutral red staining-based assay; format: functional, organism-based, Influenza A virus (A/Fukui/45/2004(H3N2)); conditions: 72 h
Influenza A virus [10] = assay: Antiviral activity against Influenza A virus (A/Victoria/503/06) infected in MDCK cells assessed as reduction in plaque formation measured after 3 days post infection by neutral red staining-based assay; format: functional, organism-based
Influenza B virus = assay: Antiviral activity against Influenza B virus (B/Perth/211/2001) infected in MDCK cells assessed as reduction in plaque formation measured after 3 days post infection by neutral red staining-based assay; format: functional, organism-based; conditions: 72 h
Neuraminidase [11] = target: T1, Neuraminidase; remark: listed apart in the source
Neuraminidase [12] = target: T1, Neuraminidase; remark: listed apart in the source
Neuraminidase [13] = target: T1, Neuraminidase; remark: listed apart in the source
Neuraminidase [14] = target: T1, Neuraminidase; remark: listed apart in the source
Neuraminidase [15] = target: T1, Neuraminidase; remark: listed apart in the source
Neuraminidase [16] = target: T1, Neuraminidase; remark: listed apart in the source
Neuraminidase [17] = target: T1, Neuraminidase; remark: listed apart in the source
[18] = target: Neuraminidase (Influenza A virus) (UniProt B4URF0); conditions: A/Mississippi/03/01 (H1N1)
[19] = target: Neuraminidase (Influenza A virus) (UniProt B4URF0); conditions: A/swine/Shepparton/6/2009 (H1N1)
[20] = target: Neuraminidase (Influenza A virus) (UniProt B4URF0); conditions: A/chicken/Vietnam/08/2004 (H5N1) clade 1
[21] = target: Neuraminidase (Influenza A virus) (UniProt A5Z252); conditions: Influenza A virus (A/chicken/Bangli/BBVD-563/2007(H5N1)); clade 2
[22] = target: Neuraminidase (Influenza A virus (A/Memphis/1/1971(H3N2))) (UniProt P03471); conditions: Influenza A virus (A/Fukui/45/2004(H3N2))
[23] = target: Neuraminidase (Influenza B virus) (UniProt Q3S340); conditions: Influenza B virus (B/Perth/211/2001)
[24] = Influenza A virus, A/Victoria/503/06, MDCK, 72 h

Chain of Neuraminidase (Influenza A virus (A/Memphis/1/1971(H3N2))) (P03471 whole entry): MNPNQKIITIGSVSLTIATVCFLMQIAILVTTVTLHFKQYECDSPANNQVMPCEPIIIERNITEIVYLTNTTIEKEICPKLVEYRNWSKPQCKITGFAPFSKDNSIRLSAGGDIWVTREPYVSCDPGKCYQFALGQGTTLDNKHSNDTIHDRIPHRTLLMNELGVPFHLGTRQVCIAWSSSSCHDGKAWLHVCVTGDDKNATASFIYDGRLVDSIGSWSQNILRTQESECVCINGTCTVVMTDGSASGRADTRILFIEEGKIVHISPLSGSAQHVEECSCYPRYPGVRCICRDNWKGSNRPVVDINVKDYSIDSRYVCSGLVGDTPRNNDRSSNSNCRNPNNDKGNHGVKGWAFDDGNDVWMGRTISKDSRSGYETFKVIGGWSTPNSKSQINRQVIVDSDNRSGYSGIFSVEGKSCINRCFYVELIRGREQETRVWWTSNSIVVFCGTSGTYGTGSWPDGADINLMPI
Chain of Neuraminidase (Influenza A virus (A/Memphis/1/1971(H3N2)), UniProt P03471) (P03471 whole entry): as above
T3 sequence (Q3S340 whole entry): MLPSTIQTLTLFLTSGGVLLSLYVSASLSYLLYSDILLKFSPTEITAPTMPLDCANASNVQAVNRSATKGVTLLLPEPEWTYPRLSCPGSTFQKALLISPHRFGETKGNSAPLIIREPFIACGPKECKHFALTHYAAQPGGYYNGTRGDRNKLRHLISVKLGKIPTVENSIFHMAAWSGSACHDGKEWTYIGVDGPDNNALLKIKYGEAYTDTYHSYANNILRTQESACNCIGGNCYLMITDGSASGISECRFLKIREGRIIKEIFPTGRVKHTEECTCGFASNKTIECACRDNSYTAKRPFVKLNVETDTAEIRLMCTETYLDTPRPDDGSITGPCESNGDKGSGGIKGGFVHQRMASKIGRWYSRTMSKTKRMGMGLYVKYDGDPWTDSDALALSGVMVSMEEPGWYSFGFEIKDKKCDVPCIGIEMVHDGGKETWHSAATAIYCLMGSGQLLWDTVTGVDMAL
Chain of Neuraminidase (Influenza B virus) (Q3S340 as listed by the source): as the sequence (Q3S340 whole entry) above

Row | Compound | IC50 (Neuraminidase [1]) [nM] | IC50 (Neuraminidase [2]) [nM] | IC50 (Neuraminidase [3]) [nM] | IC50 [4] [nM] | IC50 [5] [nM] | IC50 (Neuraminidase [6]) [nM] | IC50 (Neuraminidase [7]) [nM] | EC50 (Influenza A virus [8]) [nM] | EC50 (Influenza A virus [9]) [nM] | EC50 (Influenza A virus [10]; [24]) [nM] | EC50 (Influenza B virus) [nM] | IC50 (Neuraminidase [11]) [nM] | IC50 (Neuraminidase [12]) [nM] | IC50 (Neuraminidase [13]) [nM] | T1/2 [18] [min] | T1/2 [19] [min] | T1/2 [20] [min] | T1/2 [21] [min] | T1/2 [22] [min] | T1/2 [23] [min] | also measured
1 | CC(=O)N[C@@H]1C[C@@H](F)[C@](F)(C(=O)O)O[C@H]1[C@H](O)[C@H](O)CO | 69 | 583 | 535 | 313 | 318 | 76 | 27 | 1000 | 100000 | 10000 | 1000 | 48 | 428 | 490 | 26.7 | 11.6 | 13.7 | 10.6 | 13.4 | 29.2 | IC50 (Neuraminidase [14]): 474 nM; IC50 (Neuraminidase [15]): 490 nM; IC50 (Neuraminidase [16]): 985 nM; IC50 (Neuraminidase [17]): 1400 nM
2 | CC(=O)N[C@@H]1[C@@H](O)[C@@H](F)[C@](F)(C(=O)O)O[C@H]1C[C@H](O)CO |  |  |  |  |  | 228 | 40 | 100 to 1000 | 10000 to 100000 |  | 1000 to 10000 |  |  |  | 29.2 | 15.8 | 15 | 12.3 | 13.9 | 68.7 | EC50 (Influenza A virus [10]; mdck): 10000 nM
3 | CC(=O)N[C@@H]1[C@@H](O)[C@@H](F)[C@](F)(C(=O)O)O[C@H]1[C@H](O)CCO | 2610 | 24500 | 28200 | 28700 | 5010 | 7620 |  | 10000 | ≥ 100000 | ≥ 100000 | 10000 to 100000 | 8290 | 25800 | 22400 | 30.4 | 17.8 | 19.4 | 23.6 | 25.1 | 186 | IC50 (Neuraminidase [14]): 25800 nM; IC50 (Neuraminidase [15]): 22000 nM; IC50 (Neuraminidase [16]): 21700 nM; IC50 (Neuraminidase [17]): 17000 nM
4 | CC(=O)N[C@@H]1[C@@H](O)[C@@H](F)[C@](F)(C(=O)O)O[C@H]1[C@H](O)[C@@H](C)O |  |  |  |  |  | 9190 |  | 10000 to 100000 |  | ≥ 100000 | 10000 to 100000 |  |  |  | 37.5 | 24.5 | 17.2 | 16.9 | 29.7 | > 240 | 
5 | CC(=O)N[C@H]1[C@H]([C@H](O)[C@H](O)CO)OC(C(=O)O)=C[C@@H]1NC(=N)N [ZANAMIVIR] |  |  |  |  |  |  |  | ≤ 1 | 100 | 0.1 to 1 | 10 |  |  |  |  |  |  | 72.8 |  |  | 
6 | CC(=O)N[C@@H]1[C@@H](O)[C@@H](F)[C@](F)(C(=O)O)O[C@H]1[C@H](O)[C@H](O)CO |  | 863 | 889 |  |  | 414 | 65 | 1000 | 100000 | 100000 | 1000 |  |  |  | 24.8 | 11.8 | 12 | 8.5 | 17.6 | 43.6 | 
